Five compounds from US20240269298A1, “PHOSPHONYL DERIVATIVE, AND COMPOSITION AND PHARMACEUTICAL APPLICATION THEREOF” (XIZANG HAISCO PHARMACEUTICAL CO., LTD., priority 2021, published 2024) can be followed below.

What is called DC50 is the concentration giving 50% degradation. Low values mean a more potent degrader, high ones a less potent degrader. A word on the AUC: it is concentration integrated over time. Read a low AUC as low exposure. By half-life is commonly meant the time in which the quantity being followed falls by half. A low value points to rapid decline. In general, pIC50 refers to −log10 of the IC50, conventionally taken in molar units. As usually defined, the AUC(0-t) is exposure summed from dosing to a finite time, without extrapolation to infinity. Low readings indicate less exposure, high ones more exposure.

The target of data set [1] is T1, EGFR protein in NCI-H1975 EGFR-L858R-T790M-C797S cells (Homo sapiens, UniProt P00533, C797S/L858R/T790M).
T1 construct: expressed in transfected cells; host or cells: NCI-H1975 EGFR-L858R-T790M-C797S (kept under hygromycin selection)
T1 sequence (P00533 25-1210 T790M/C797S/L858R): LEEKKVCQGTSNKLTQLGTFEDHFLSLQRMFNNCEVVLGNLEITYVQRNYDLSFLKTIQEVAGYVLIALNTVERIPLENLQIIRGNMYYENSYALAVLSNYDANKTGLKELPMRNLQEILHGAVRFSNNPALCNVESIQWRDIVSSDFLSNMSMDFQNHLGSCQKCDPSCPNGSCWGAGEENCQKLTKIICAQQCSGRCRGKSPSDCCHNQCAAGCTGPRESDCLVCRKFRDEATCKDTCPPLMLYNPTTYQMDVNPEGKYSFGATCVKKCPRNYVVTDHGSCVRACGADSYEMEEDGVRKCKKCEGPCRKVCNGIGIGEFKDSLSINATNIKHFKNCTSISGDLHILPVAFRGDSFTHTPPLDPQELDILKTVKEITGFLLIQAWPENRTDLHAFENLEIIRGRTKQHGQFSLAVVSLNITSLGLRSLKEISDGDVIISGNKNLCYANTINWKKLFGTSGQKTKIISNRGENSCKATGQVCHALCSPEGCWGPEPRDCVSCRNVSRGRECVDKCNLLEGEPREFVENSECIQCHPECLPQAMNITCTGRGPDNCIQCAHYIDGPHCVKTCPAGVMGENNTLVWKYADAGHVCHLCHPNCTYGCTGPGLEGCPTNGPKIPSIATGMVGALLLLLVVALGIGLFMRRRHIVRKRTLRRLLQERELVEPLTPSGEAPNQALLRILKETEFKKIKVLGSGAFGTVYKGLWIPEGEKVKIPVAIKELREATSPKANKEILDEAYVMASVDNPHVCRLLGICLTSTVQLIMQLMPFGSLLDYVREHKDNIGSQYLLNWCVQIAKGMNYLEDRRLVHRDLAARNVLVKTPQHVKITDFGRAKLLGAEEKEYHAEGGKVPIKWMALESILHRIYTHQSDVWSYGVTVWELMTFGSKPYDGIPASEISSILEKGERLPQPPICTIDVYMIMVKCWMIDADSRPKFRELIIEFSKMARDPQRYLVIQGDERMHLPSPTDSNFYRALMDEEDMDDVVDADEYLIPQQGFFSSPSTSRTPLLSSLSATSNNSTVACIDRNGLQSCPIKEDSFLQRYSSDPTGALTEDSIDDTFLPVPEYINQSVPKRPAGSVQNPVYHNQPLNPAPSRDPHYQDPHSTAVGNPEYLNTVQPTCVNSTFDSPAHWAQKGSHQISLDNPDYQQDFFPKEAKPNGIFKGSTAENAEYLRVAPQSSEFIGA
Description: Degradation activity on EGFR protein in NCI-H1975 EGFR-L858R-T790M-C797S cells, Method II (western blot, 48 h). The format is cell-based. The following applies: 48 h incubation, EGFR protein relative to DMSO control. The procedure: Protein sample preparation: NCI-H1975 EGFR-L858R-T790M-C797S cells were cultured in an incubator at 37° C. with 5% CO2, and the culture medium was RPMI1640+10% FBS+100 μg/mL hygromycin. The cells in the logarithmic phase were collected, and the cell suspension was adjusted to an appropriate concentration with a hygromycin-free culture medium, plated on a 6-well plate at a density of 350000 cells/well and a volume of 2 mL, and cultured overnight in an incubator at 37° C. with 5% CO2. The next day, the compounds at different concentrations were added. DMSO control wells were provided, wherein the concentration of DMSO in all wells was 0.1%. The 6-well plate was cultured in an incubator at 37° C. with 5% CO2 for 48 h, and then 30 μL of RIPA lysates (Beyotime, Cat. P0013B) containing protease inhibitors (Beyotime, Cat. P0013B) were added. The mixtures were lysed on ice for 30 min. Centrifugation was carried out at 13000 rpm/min at 4° C. for 20 minutes to collect protein supernatant samples, and protein quantification was performed by the BCA method. Western Blot detection samples were prepared.
Western blot detection: 20 μg of protein samples were added to each well, subjected to polyacrylamide gel electrophoresis and transferred to a membrane, and then diluted anti-EGFR (CST, Cat. 4267S) and […] (Kangchen, Cat. KC-5G4) antibodies were added and incubated overnight at 4° C. After washing the membrane, diluted goat anti-rabbit (Licor, Cat. 926-32211) and goat anti-mouse (Licor, Cat. 926-68070) antibodies were added and incubated in the dark for 45 min. Scanning and detection at wavelengths of 700 nm and 800 nm were performed with a far-infrared imaging system (Odyssey).
According to formula (3), the expression level of EGFR protein in the cells relative to the DMSO control group was calculated after incubation with different concentrations of compounds. wherein EGFRcompound was the fluorescence value of EGFR protein after incubation with compounds, and EGFRvehicle was the fluorescence value of EGFR protein in the DMSO control group. Using the Origin 9.2 software, the drug concentration DC50 values when the expression level of EGFR protein was 50% relative to the DMSO control group were calculated.
On the technique in general: Immunoblotting shows a protein as a band on a membrane.

Data set [2] can be described thus: Pharmacokinetic test in mice. The format is in vivo. The following applies: male, ICR, mouse, po, administration i.g. (10 mg/kg), plasma. An outline of the steps: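 Male ICR mice (20-25 g), fasted 12-14 h before dosing and fed 4 h after, received a single intravenous or intragastric dose. Orbital plasma sampled from 0 to 24 h (5 min-24 h points); LC-MS/MS quantitation for PK parameters and bioavailability.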

Data set [3] has as its system NCI-H1975 (EGFR-L858R-T790M) cells. Nature of the data set: Inhibitory activity on proliferation of NCI-H1975 (EGFR-L858R-T790M) cells (CTG, 72 h). The format is cell-based. Particulars: Homo sapiens. An outline of the steps: (§1)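 IC50 values come from S-shaped dose-survival fits of CTG signal expressed as % of vehicle. Compound exposure lasted 72 h at 37 °C with 0.1% DMSO; seeding was 3000 A431 cells/well in DMEM+10% FBS and 1000 NCI-H1975 cells/well in RPMI1640+10% FBS.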

Data set [4] concerns NCI-H1975 EGFR-L858R-T790M-C797S cells. Description: Inhibitory activity on proliferation of NCI-H1975 EGFR-L858R-T790M-C797S cells (CellTiter-Glo, 72 h). The class given is cell-based. Particulars: Homo sapiens. In short, it runs like this: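 Cells (1500/well) exposed to graded compound concentrations for 72 h at 37 °C in hygromycin-free RPMI1640 + 10% FBS, 0.1% DMSO vehicle. Viability by CellTiter-Glo luminescence relative to vehicle; IC50 from nonlinear sigmoidal dose-survival fit.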
For orientation: ATP-based viability assays read luminescence as a measure of living cells.

A further data set concerns A431 (EGFR-WT) cells. Nature of the data set: Inhibitory activity on proliferation of A431 (EGFR-WT) cells (CTG, 72 h). The format is cell-based. The following applies: Homo sapiens, A-431. An outline of the steps: as §1
Where [5] appears, read: read-out: IC50 (value in brackets).

pIC50: −log10 of the molar value. Read-outs that look alike come from different tables or passages of the source.

In turn, `COc1cc(N2CCC(CN3CCN(c4ccc5c(c4)C(=O)N(C4CCC(=O)NC4=O)C5=O)CC3)CC2)c(-c2cnn(C)c2)cc1Nc1ncc(Cl)c(Nc2ccc(-c3ccccc3F)cc2P(C)(C)=O)n1` (stereo not shown) [Compound 102, 5-(4-((1-(4-((5-chloro-4-((3-(dimethylphosphoryl)-2′-fluoro-[1,1′-biphenyl]-4-yl)amino)pyrimidin-2-yl)amino)-5-methoxy-2-(1-methyl-1H-pyrazol-4-yl)phenyl)piperidin-4-yl)methyl)piperazin-1-yl)-2-(2,6-dioxopiperidin-3-yl)isoindoline-1,3-dione] showed a DC50 in data set [1] of under 0.1 µM. In data set [2], the AUC stood at 87.9 µg·h/mL. In data set [2], this compound showed a half-life of 9.49 h. Further, the pIC50 in data set [3] (read-out: IC50 (class symbol)) is 6.30 to 7.00; in data set [3] (setting [5]), 6.82; in data set [4] (read-out: IC50 (class symbol)) it was over 6.70; in data set [4] (read-out: IC50 (value)), 6.82; in the data set with A431 (EGFR-WT) cells, at most 5.00.
In turn, `COc1cc(N2CCN(C[C@@H]3CCN(c4ccc5c(c4)C(=O)N(C4CCC(=O)NC4=O)C5=O)C3)CC2)c(-c2cnn(C)c2)cc1Nc1ncc(Br)c(Nc2ccc(-c3ccccc3)cc2P(C)(C)=O)n1` (stereo partly drawn) [Compound 103, 5-((S)-3-((4-(4-((5-bromo-4-((3-(dimethylphosphoryl)-[1,1′-biphenyl]-4-yl)amino)pyrimidin-2-yl)amino)-5-methoxy-2-(1-methyl-1H-pyrazol-4-yl)phenyl)piperazin-1-yl)methyl)pyrrolidin-1-yl)-2-(2,6-dioxopiperidin-3-yl)isoindoline-1,3-dione] showed a DC50 in data set [1] of under 0.1 µM. The AUC(0-t) in data set [2] was 34.7 µg·h/mL. Further, the pIC50 in data set [3] (read-out: IC50 (class symbol)) is over 7.00; in data set [3] (setting [5]), 7.21; in data set [4] (read-out: IC50 (class symbol)), over 6.70; in data set [4] (read-out: IC50 (value)), 7.00; with A431 (EGFR-WT) cells, at most 5.00.
`COc1cc(N2CCN(C[C@H]3CCN(c4ccc5c(c4)C(=O)N(C4CCC(=O)NC4=O)C5=O)C3)CC2)c(-c2cnn(C)c2)cc1Nc1ncc(Br)c(Nc2ccc(-c3ccccc3)cc2P(C)(C)=O)n1` (stereo partly drawn) [Compound 104, 5-((R)-3-((4-(4-((5-bromo-4-((3-(dimethylphosphoryl)-[1,1′-biphenyl]-4-yl)amino)pyrimidin-2-yl)amino)-5-methoxy-2-(1-methyl-1H-pyrazol-4-yl)phenyl)piperazin-1-yl)methyl)pyrrolidin-1-yl)-2-(2,6-dioxopiperidin-3-yl)isoindoline-1,3-dione] showed a DC50 in data set [1] of under 0.1 µM. The same compound returned an AUC(0-t) in data set [2] of 47.3 µg·h/mL. The pIC50 in data set [3] (read-out: IC50 (class symbol)) was over 7.00; in data set [3] (setting [5]) it was 7.27; in data set [4] (read-out: IC50 (class symbol)) it was over 6.70; in data set [4] (read-out: IC50 (value)), 7.09; in the data set with A431 (EGFR-WT) cells, at most 5.00.
In data set [1], `COc1cc(N2CCC(CN3CCN(c4ccc5c(c4)C(=O)N(C4CCC(=O)NC4=O)C5=O)CC3)CC2)c(-c2cnn(C)c2)cc1Nc1ncc(Br)c(Nc2ccccc2P(C)(C)=O)n1` (stereo not shown) [Compound 108, 5-(4-((1-(4-((5-bromo-4-((2-(dimethylphosphoryl)phenyl)amino)pyrimidin-2-yl)amino)-5-methoxy-2-(1-methyl-1H-pyrazol-4-yl)phenyl)piperidin-4-yl)methyl)piperazin-1-yl)-2-(2,6-dioxopiperidin-3-yl)isoindoline-1,3-dione] returned a 50% degradation concentration (DC50) of under 0.1 µM. This compound also returned an AUC in data set [2] of 71 µg·h/mL. Also, the half-life in data set [2] is 4.83 h. Besides, the negative-log IC50 (pIC50) in data set [3] (read-out: IC50 (class symbol)) was over 7.00; in data set [3] (setting [5]), 7.38; in data set [4] (read-out: IC50 (class symbol)), over 6.70; in data set [4] (read-out: IC50 (value)) it was 6.87; in the data set on A431 (EGFR-WT) cells, at most 5.00.
Compound `COc1cc(N2CCN(C[C@H]3CCN(c4ccc5c(c4)C(=O)N(C4CCC(=O)NC4=O)C5=O)C3)CC2)c(-c2cnn(C)c2)cc1Nc1ncc(Br)c(Nc2ccc(-c3ccccc3F)cc2P(C)(C)=O)n1` (stereo partly drawn) [Compound 117, 5-((R)-3-((4-(4-((5-bromo-4-((3-(dimethylphosphoryl)-2′-fluoro-[1,1′-biphenyl]-4-yl)amino)pyrimidin-2-yl)amino)-5-methoxy-2-(1-methyl-1H-pyrazol-4-yl)phenyl)piperazin-1-yl)methyl)pyrrolidin-1-yl)-2-(2,6-dioxopiperidin-3-yl)isoindoline-1,3-dione] gave a DC50 in data set [1] of under 0.1 µM. The same compound had an AUC(0-t) in data set [2] of 101 µg·h/mL. Further, the pIC50 in data set [3] (read-out: IC50 (class symbol)) was over 7.00; in data set [3] (setting [5]), 7.29; in data set [4] (read-out: IC50 (class symbol)), over 6.70; in data set [4] (read-out: IC50 (value)) it was 7.10; in the data set on A431 (EGFR-WT) cells, at most 5.00.
